Experimental data taken from patent US20240285670A1, “THERAPEUTIC TREATMENT OF TUMORS BY BLOCKING THE HEME SYNTHESIS-EXPORT AXIS” (Università degli Studi di Torino, priority 2021, published 2024).

Assays:
ALAS1 = assay: qRT-PCR analysis of ALAS1 expression in C80 cells; assay type: cell-based, human; conditions: FLVCR1a-silenced vs scramble shRNA C80 cells
Protocol: (A) Heme content in Caco2 cells treated with 5 mM 5-ALA (black bars and white bars) or with 5 mM 5-ALA+0.5 mM SA (light grey outlined bars) for the indicated time points. […] Values are expressed as relative fluorescence intensity. Data represent mean±SEM, n=2. For statistical analyses, a two-way analysis of variance was used, followed by the Bonferroni correction for multiple group comparisons; **=p<0.01, ***=p<0.001. 5-ALA, 5-aminolevulinic acid; SA, succinylacetone. (B) Intracellular 5-ALA levels. […] Values are expressed as peak area/μg proteins. Data represent mean±SEM of n=4 wells pooled from two independent experiments. For statistical analyses, an unpaired Student's t-test was used; **=p<0.01. 5-ALA, 5-aminolevulinic acid. (C, D) Accumulation of ^13C2-5-ALA in cells incubated with U-^13C-glucose (C) or of ^13C3-5-ALA in cells incubated with U-^13C-glutamine (D) for the indicated time. […] Values are expressed as peak area/μg proteins. […] Transcript abundance, normalized to beta-actin mRNA expression, is expressed as a fold increase over a calibrator sample. […] Band intensities were measured by densitometry and normalized to vinculin expression. […]
RNA extraction and quantitative real-time PCR analyses were performed as described previously (Destefanis et al., 2019). […] Quantitative real-time PCR (qRT-PCR) was performed using the Universal Probe Library system (Roche, Basel, CH). […]

SKCO1 cells = assay: Flow cytometric analysis of apoptosis in SKCO1 cells; assay type: cell-based, human; conditions: FLVCR1a-silenced vs scramble shRNA, synchronized SKCO1 cells
Excerpt: (A) Proliferation of Caco2 cells assessed by crystal violet staining at the indicated days; bar=1000 μm. […] Staining quantification is reported in the bar graph as percentage of crystal violet stained area. Data represent mean±SEM, n=4. For statistical analyses, a two-way analysis of variance was used, followed by the Bonferroni correction for multiple group comparisons; *=p<0.05, ***=p<0.001. (B) Caco2 cells viability the day of plating (day 0) and three days after plaiting (day 3). The measure is considered a readout of cell proliferation. […] Data represent mean±SEM, n=3 wells. For statistical analyses, a two-way analysis of variance was used, followed by the Bonferroni correction for multiple group comparisons; *=p<0.05, **=p<0.01. (C, D, E) Representative flow cytometric analyses of apoptosis in synchronized Caco2 (C), SKCO1 (D) and C80 (E) cells. […] Data represent mean±SEM, n=4 wells pooled from two independent experiments. For statistical analyses, an unpaired Student's t-test was used; *=p<0.05, **=p<0.01. […]
Stained cells were analyzed using a FACSCanto II cytofluorimeter and processed with BD FACSDIVA Software v8.1 (BD Biosciences, Milan, IT; http://www.bdbiosciences.com/instruments/software/facsdiva/index.jsp/ RRID:SCR_001456), acquiring at least 10,000 events per sample or 25,000 cells per sample for cell cycle experiments.

“FLVCR1a shRNA: shRNA specifically down-regulating FLVCR1a without targeting FLVCR1b; pLKO.1 lentiviral clone TRCN0000059599, antisense SEQ ID No.: 2 (antisense TTGCTAATGATGCTGTACTGG; sense CCAGTACAGCATCATTAGCAA)” was tested, and the “ALAS1 expression (qRT-PCR)” value (ALAS1) was “reduced ALAS1 expression” and the apoptosis (SKCO1 cells) was “increased apoptosis”.
